The target of assay [1] is T1, 5-HT1A (Rattus norvegicus, UniProt P19327).
T1 sequence (P19327 1-422): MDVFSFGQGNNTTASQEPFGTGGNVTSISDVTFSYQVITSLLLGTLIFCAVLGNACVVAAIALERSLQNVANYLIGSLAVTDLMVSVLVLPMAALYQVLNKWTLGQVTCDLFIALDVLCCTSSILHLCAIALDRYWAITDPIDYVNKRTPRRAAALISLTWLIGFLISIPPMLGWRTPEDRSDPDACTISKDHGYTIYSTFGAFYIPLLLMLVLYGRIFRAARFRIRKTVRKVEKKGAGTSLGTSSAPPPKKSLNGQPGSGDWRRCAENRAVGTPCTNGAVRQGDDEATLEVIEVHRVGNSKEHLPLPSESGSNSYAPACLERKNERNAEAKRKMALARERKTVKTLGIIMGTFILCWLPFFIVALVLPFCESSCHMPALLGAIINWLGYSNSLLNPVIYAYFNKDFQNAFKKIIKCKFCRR
Description: Serotoninergic (5-HT) syndrome. Set-up: carried out with the male rat (Sprague-Dawley); from tissue; host or cells: whole living rat (in vivo). Type of assay: in vivo, male rat (Sprague-Dawley). Particulars: po, male rat. The protocol: The central activity of the compounds of the invention was evaluated by their ability to provoke the 5-HT syndrome, which is characterized by:
an alternating bending and stretching of the forepaws (reciprocal fore-paw treading: FPT)
the retraction of the lower lip (lower lip on: LLR)
a position or the ventral surface of the animal is incobtact with the ground and the hind paws extended (flat body posture: FBP).
The experiments on the evaluation of the 5-HT syndrome are carried out with the male rat (Sprague-Dawley) according to the technique described by F. C. Colpaert et al. (Drug. Dev. Res, 26, 21-48, 1992) and M. S. Kleven et al. (J.P.E.T., 282, 747-759, 1997).

For assay [2], the target named is α1-adrenergic receptor. Kind of assay: Binding to the α1-adrenergic receptor (displacement of [3H]Prazosin). Particulars: rat cortex, 30 min, 23 °C, mean of at least 3 experimentations. Further details: species or system rat (male Sprague-Dawley), brain cortex. How it is done:
(§1) Binding to the 5-HT1A, D2 dopaminergic and α1-adrenergic receptors:
(§2) Brains from male Sprague-Dawley 180-200 g rats [Ico: OFA SD (I.O.P.S. Caw); Iffa Credo, France], maintained at -70° C., were used in all the studies.
(§3) The affinity of the products for the various receptors was determined by displacement of radioactive ligands under the conditions summarized in Table 1.
(§4) The reaction is halted by rapid filtration, under vacuum, through Whatman GF/B filters and the tubes are rinsed with 2×5 ml of Tris-HCl 50 mM, pH 7.4, buffer at 25° C. The radioactivity collected on the filter is analyzed by liquid scintillation after addition of 4 ml of liquid scintillant (Emulsifier Safe, Packard). All the experiments are carried out in triplicate.
(§5) The inhibition constants (Ki) of the products are estimated from the displacement experimentations by using the EBDA (equilibrium binding data analysis) Radlig version 4 nonlinear regression program (Biosoft, Cambridge, UK; McPherson, 1985).
(§6) The pKi (-log Ki) values are given in the form of the mean ± SEM of at least 3 experimentations (Table 2).
Experimental conditions for binding to the receptors
[^3 H] ligand Incubation binding
Concen- Tissue Temper- Concen-
Binding KD tration Concen- Time ature tration
site (nM) (nM) Type tration (min) (° C.) Product (μM)
Buffers: (A) Tris HCl 50 mM pH 7.4, pargyline 10 μM, CaCl2 4 mM,
0.1% ascorbic acid; (B) Tris HCl 50 mM pH 7.4, NaCl 120 mM, KCl 5 mM; (C)

Assay [3] concerns the target T1, 5-HT1A. Kind of assay: Binding to the 5-HT1A receptor (displacement of [3H]8-OH-DPAT). Set-up: Brains from male Sprague-Dawley 180-200 g rats; tissue Iffa Credo, France (animals); host or cells: rat brain cortex; species or system rat (male Sprague-Dawley), brain cortex. Particulars: for Ki: read-out: pKi 5-HT1A (converted). How it is done:
as §1, §2, §3, §4, §5, §6

Assay [4] deals with T2, D2 dopaminergic receptor (Rattus norvegicus, UniProt P61169).
T2 construct: Brains from male Sprague-Dawley 180-200 g rats; tissue Iffa Credo, France (animals); host or cells: rat brain striatum
Kind of assay: Binding to the D2 dopaminergic receptor (displacement of [3H]YM-09151-2). Set-up: species or system rat (male Sprague-Dawley), brain striatum. Particulars: read-out: pKi D2 (converted). The protocol:
as §1, §2, §3, §4, §5, §6

Assay [5] is described as follows: Antidepressant activity: forced swimming test. Type of assay: in vivo. Particulars: po, percentage of animals with significant decrease vs control (p<0.05), read-out: ED50 (decrease in the immobility time).
Where [6] appears, read: flat body posture (FBP), read-out: 5-HT syndrome ED50 FBP.
[7] abbreviates: lower lip retraction (LLR), read-out: 5-HT syndrome ED50 LLR.
The mark [8] stands for this setting: reciprocal fore-paw treading (FPT), read-out: 5-HT syndrome ED50 FPT.

Counter-ions that a name gives are not always drawn. Like-named read-outs stand apart in the source and are kept apart here.

T2 sequence (P61169 whole entry): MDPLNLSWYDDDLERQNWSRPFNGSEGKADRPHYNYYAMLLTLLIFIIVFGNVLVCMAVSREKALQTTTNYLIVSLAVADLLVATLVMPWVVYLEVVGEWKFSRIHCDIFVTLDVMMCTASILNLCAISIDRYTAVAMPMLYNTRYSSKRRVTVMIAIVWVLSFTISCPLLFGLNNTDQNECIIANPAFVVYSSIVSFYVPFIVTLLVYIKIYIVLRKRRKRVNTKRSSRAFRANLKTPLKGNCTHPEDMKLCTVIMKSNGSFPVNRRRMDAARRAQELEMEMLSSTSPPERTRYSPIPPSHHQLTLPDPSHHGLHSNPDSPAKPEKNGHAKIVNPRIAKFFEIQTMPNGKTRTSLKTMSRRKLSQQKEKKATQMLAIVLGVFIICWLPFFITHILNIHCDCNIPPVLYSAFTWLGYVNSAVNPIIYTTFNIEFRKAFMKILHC

Take `Cc1ccnc(N2CCN(CCCCOc3cnn(C)c(=O)n3)CC2)n1.O=C(O)/C=C/C(=O)O` [Compound 2, 2-Methyl-5-[4-[4-(4-methylpyrimidin-2-yl)piperazin-1-yl]butoxy]-2H-[1,2,4]triazin-3-one fumarate]: the ED50 in assay [1] (setting [6]) was determined as 0.08 mg/kg; in assay [1] (setting [7]) it was 0.02 mg/kg; in assay [1] (setting [8]) it was 0.08 mg/kg; in assay [5] it was 0.04 mg/kg. Besides, the “pKi α1” value in assay [2] was determined as 6.11. Moreover, the Ki was 0.269 nM in assay [3] and 1740 nM in assay [4].

Take `Cn1ncc(OCCCCNC[C@@H]2COc3ccccc3O2)nc1=O` [Compound 21, (R)-5-[4-[(2,3-Dihydrobenzo[1,4]dioxin-2-ylmethyl)amino]butoxy)-2-methyl-2H-[1,2,4]triazin-3-one fumarate]: in assay [3], the Ki was 0.331 nM.

With `Cn1ncc(OCC[C@H]2CC[C@@H]3CN(c4ncccn4)CCN3C2)nc1=O` (relative stereo) [Compound 24, trans-2-Methyl-5-[2-(2-pyrimidin-2-yl-octahydropyrido[1,2-a]pyrazin-7-yl)ethoxy]-2H-[1,2,4]triazin-3-one], the ED50 in assay [1] (setting [6]) was 0.08 mg/kg; in assay [1] (setting [7]), less than 0.04 mg/kg; in assay [1] (setting [8]) it was 0.08 mg/kg; in assay [5], 0.04 mg/kg. Moreover, the “pKi α1” value in assay [2] amounted to 6.35. For the same compound, the Ki is 0.525 nM in assay [3] and 2880 nM in assay [4].

Take `Cn1ncc(OCCCCN2CCN(c3ncccn3)CC2)nc1=O` [Compound 1, 2-Methyl-5-[4-(4-pyrimidin-2-yl-piperazin-1-yl)butoxy]-2H-[1,2,4]triazin-3-one]: the ED50 in assay [1] (setting [6]) amounted to 0.08 mg/kg; in assay [1] (setting [7]), 0.02 mg/kg; in assay [1] (setting [8]) it was 0.08 mg/kg. In assay [2], the “pKi α1” value turned out to be 6.25. The Ki in assay [3] was 0.676 nM; in assay [4], 1580 nM.

For `COc1ccnc(N2CCN(CCCCOc3cnn(C)c(=O)n3)CC2)n1` [Compound 4, 5-[4-[4-(4-Methoxypyrimnidin-2-yl)piperazin-1-yl]butoxy]-2-methyl-2H-[1,2,4]triazin-3-one fumarate], the ED50 was 0.08 mg/kg in assay [1] (setting [6]), less than 0.04 mg/kg in assay [1] (setting [7]) and 0.08 mg/kg in assay [1] (setting [8]). For the same compound, the “pKi α1” value in assay [2] is recorded as 6.74. Further, the Ki in assay [3] was 0.138 nM; in assay [4] it was 2240 nM.

As for `COc1ccc(Cl)cc1N1CCN(CCCCOc2cnn(C)c(=O)n2)CC1` [Compound 19, 5-[4-[4-(5-Chloro-2-methoxyphenyl)-piperazin-1-yl]butoxyl-2-methyl-2H-[1,2,4]triazin-3-one fumarate], in assay [2], the “pKi α1” value was determined as 8.21. The Ki in assay [3] is 0.309 nM; in assay [4], 15.1 nM.

Turning to `O=C(NCCN1CCN(c2cccc3c2OC[C@H](CO)O3)CC1)c1ccc(F)cc1` [Flesinoxan, reference compound], in assay [2], the “pKi α1” value was 6.50. Moreover, the ED50 in assay [5] is 1.25 mg/kg.

Consider `O=C1CC2(CCCC2)CC(=O)N1CCCCN1CCN(c2ncccn2)CC1` [Buspirone, reference compound], for which the ED50 was greater than 40 mg/kg in assay [1] (setting [8]) and greater than 160 mg/kg in assay [5]. Besides, the “pKi α1” value in assay [2] turned out to be 6.19.

With `Cn1ncc(OCCCCN2CCN(c3ncc(F)cn3)CC2)nc1=O` [Compound 7, 5-[4-[4-(5-Fluoropyrimidin-2-yl)piperazin-1-yl]butoxy]-2-methyl-2H-[1,2,4]triazin-3-one], the values for the ED50 in assay [1] (setting [6]), in assay [1] (setting [7]) and in assay [1] (setting [8]) were 0.31 mg/kg, 0.08 mg/kg and 0.31 mg/kg, respectively. Besides, the Ki in assay [3] was 0.912 nM.

In the case of “5-[4-[4-(5-Chloro-2-methoxyphenyl)-piperazin-1-yl]butoxy]-2-methyl-2H- [1,2,4]triazin-3-one fumarate [Compound 17]”, in assay [1] (flat body posture (FBP)), the “5-HT syndrome ED50 FBP” value is recorded as 0.31 mg/kg. In assay [1] (lower lip retraction (LLR)), the “5-HT syndrome ED50 LLR” value is listed as 0.08 mg/kg. Also, the “5-HT syndrome ED50 FPT” value in assay [1] (reciprocal fore-paw treading (FPT)) is given as 0.31 mg/kg. Besides, the “pKi 5-HT1A” value in assay [3] ([3H]8-OH-DPAT, rat cortex, 30 min, 23 °C, mean of at least 3 experimentations) was 9.89.

Take `Cn1ncc(OCC[C@H]2CC[C@@H]3CN(c4ncccn4)CCN3C2)nc1=O` (single isomer, unassigned) [Compound 26]: the ED50 is less than 0.04 mg/kg in assay [1] (setting [6]), less than 0.04 mg/kg in assay [1] (setting [7]), 0.04 mg/kg in assay [1] (setting [8]) and 0.04 mg/kg in assay [5]. In assay [3], the Ki was 0.245 nM.

As to `Cn1ncc(OCCCCNC[C@H]2COc3ccccc3O2)nc1=O` [Compound 22, (S)-5-[4-[(2,3-Dihydrobenzo[1,4]dioxin-2-ylmethyl)amino]butoxy]-2-methyl-2H-[1,2,4]triazin-3-one fumarate], the Ki in assay [3] is 0.0339 nM.

Regarding `COc1cccnc1N1CCN(CCCCOc2cnn(C)c(=O)n2)CC1` [Compound 15, 5-[4-[4-(3-Methoxypyridin-2-yl)piperazin-1-yl]butoxy]-2-methyl-2H-[1,2,4]triazin-3-one fumarate], the Ki in assay [3] is 0.263 nM.

For the compound `Cn1ncc(OCCCCNCC2COc3ccccc3O2)nc1=O` (stereo not shown) [Compound 20, 5-[4-((2,3-Dihydrobenzo[1,4]dioxin-2-ylmethyl)amino]butoxyl-2-methyl-2H-[1,2,4]triazin-3-one fumarate], the ED50 in assay [1] (setting [6]) is 0.08 mg/kg; in assay [1] (setting [7]), less than 0.04 mg/kg; in assay [1] (setting [8]), 0.31 mg/kg. Further, the “pKi α1” value in assay [2] is 7.65. Further, the Ki in assay [3] is 0.107 nM; in assay [4], 66.1 nM.

For `Cc1cc(C)nc(N2CCN(CCCCOc3cnn(C)c(=O)n3)CC2)n1.O=C(O)/C=C/C(=O)O` [Compound 3, 5-[4-[4-(4,6-Dimethylpyrimidin-2-yl)piperazin-1-yl]butoxy]-2-methyl-2H-[1,2,4]triazin-3-one fumarate], the ED50 in assay [1] (setting [6]), in assay [1] (setting [7]) and in assay [1] (setting [8]) was 0.08 mg/kg in each case. For the same compound, the “pKi α1” value in assay [2] amounted to 6.01. For the same compound, the Ki was 0.275 nM in assay [3] and 1120 nM in assay [4].

Turning to `Cn1ncc(OCCCCN2CCN(c3cccc(Cl)c3)CC2)nc1=O` [Compound 16, 5-[4-[4-(3-Chlorophenyl)piperazin-1-yl]Butoxy]-2-methyl-2H-[1,2,4]Triazin-3-one fumarate], the Ki in assay [3] was 0.0759 nM.

As for `Cn1ncc(OCCCCN2CCN(c3nccc(Cl)n3)CC2)nc1=O` [Compound 6, 5-[4-[4-(4-Chloropyrimidin-2-yl)piperazin-1-yl]butoxy]-2-methyl-2H-[1,2,4]triazin-3-one], the ED50 in assay [1] (setting [6]) came out at 0.08 mg/kg; in assay [1] (setting [7]) it was 0.08 mg/kg; in assay [1] (setting [8]), 0.08 mg/kg; in assay [5], 0.63 mg/kg. In addition, the “pKi α1” value in assay [2] came out at 6.25. Besides, the figures for the Ki in assay [3] and in assay [4] were 0.209 nM and 1700 nM, respectively.

Source of the values: patent US6303603A, “3-oxo-2(H)-1,2,4-triazine derivatives as ligands of 5 HT1A receptors” (Pierre Fabre Medicament, priority 1997, dated 2001).
